pIC50: −log10 of the molar value. Activity calls are given as the source filed them. The rule behind the calls is not given here.
Each compound was assayed against M-phase inducer phosphatase 2 (Homo sapiens) (UniProt P30305) (assay: concentration-response of Cdc25B catalytic domain blockers – biochemical, fluorescence, IC50, dose response (AID 569)). Details: recombinant Cdc25B phosphatase, fluorescence substrate.
M-phase inducer phosphatase 2 (Homo sapiens), sequence (P30305 whole entry, looked up, the tested form may be a part): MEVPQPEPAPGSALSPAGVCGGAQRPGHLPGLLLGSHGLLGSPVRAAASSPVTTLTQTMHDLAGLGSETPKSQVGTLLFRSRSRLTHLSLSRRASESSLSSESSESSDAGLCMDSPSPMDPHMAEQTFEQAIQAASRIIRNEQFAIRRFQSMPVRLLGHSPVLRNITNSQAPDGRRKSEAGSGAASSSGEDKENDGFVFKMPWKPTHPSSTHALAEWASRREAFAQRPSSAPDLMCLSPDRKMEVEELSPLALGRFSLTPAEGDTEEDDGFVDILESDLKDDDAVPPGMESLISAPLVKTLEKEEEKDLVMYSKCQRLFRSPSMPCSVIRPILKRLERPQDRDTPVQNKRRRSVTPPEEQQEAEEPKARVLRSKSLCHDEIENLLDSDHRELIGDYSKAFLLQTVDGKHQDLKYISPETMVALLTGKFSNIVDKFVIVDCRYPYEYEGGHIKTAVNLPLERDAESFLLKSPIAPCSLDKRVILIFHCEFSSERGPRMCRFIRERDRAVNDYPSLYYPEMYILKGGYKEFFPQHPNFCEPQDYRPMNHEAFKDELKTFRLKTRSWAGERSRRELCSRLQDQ

| SMILES | IC50 | pIC50 |
| --- | --- | --- |
| COc1cccc(N2CCN(C3CC(=O)N(c4cccc(Cl)c4)C3=O)CC2)c1 (stereo unspecified) | > 50 µM (inactive) | – |
| Oc1ccc2ccccc2c1C=NC12CN3CCN(CN(C3)C1)C2 | – | 5.02 |
| Cc1nc2c(C)cccn2c1/C(O)=C1\C(=O)C(=O)N(CCN(C)C)C1c1ccncc1 (stereo unspecified) | > 50 µM (inactive) | – |
| N#CC1=C(N)N2C(=C(C#N)C13CCCCC3)SC1CCCCC12O (stereo unspecified) | > 50 µM (inactive) | – |

Now from value to compound:

| IC50 | pIC50 | SMILES |
| --- | --- | --- |
| > 50 µM (inactive) | – | O=C1CC(N2CCN(CCc3ccccn3)CC2)C(=O)N1c1ccc(Cl)cc1 (stereo unspecified) |
| > 50 µM (inactive) | – | CCOc1cc(C2C(C#N)=C(N)Oc3n[nH]c(-c4ccccc4)c32)ccc1O (stereo unspecified) |
